Experimental data reported in patent US20050130252A1, “Stabilized susceptibility tests of aerobic pathogens” (Wyeth Holdings Corporation, priority 2003, published 2005).
In brackets after ≈: the same amount, converted by molar mass. Like-named read-outs stand apart in the source and are kept apart here.

Experiments:
[1] = system: E. faecalis ATCC 29212; assay: Broth microdilution MIC; format: cell-based, Enterococcus faecalis; conditions: for MIC: Enterococcus faecalis
Method: (§1) The process for preparing susceptibility test medium are the following steps: • a. Preparing Mueller Hinton Broth II medium by adding 22 grams powdered media to 1.0 liter distilled water; • b. Autoclaving (121° C., 15 psi, 15 minutes) and cooling the medium; • c. Adding Oxyrase® up to about 10% final volume and keeping at 35-37° C. in an incubator for 30 minutes; • d. Adding about 50 μL to each well of a 96 well microtiter plate; • e. Weighing drug and adding broth to drug to bring up to about (standard 128 μg/ml); • f. Adding 50 μL of the drug to the first column of the titer plate; • g. Diluting by two-fold serial diluting across or down the plate. • h. Preparing a Prompt™ inoculum at 10^8 CFU/ml; • i. Diluting inoculum 1:100 in the broth at […] in 9.9 ml (1:100) is 10^6 colony forming units (CFU) forming the adjusted inoculum; • j. Adding 50 μL of the adjusted inoculum to the wells of the microtiter plate; • k. Incubating the plates at 35-37° C. for 18-22 hours; and • l. Reading, with the unaided eye, the MIC.
(§2) The in vitro activities of tigecycline and control antibiotics were determined by the broth microdilution method as recommended by the NCCLS. (National Committee for Clinical Laboratory Standards, 2003. Methods for Dilution Antimicrobial Susceptibility Tests for Bacteria That Grow Aerobically; Approved Standards: M7-A6, Sixth ed, vol. 23., National Committee for Clinical Laboratory Standards Wayne, Pa.) was used for the standard procedures. MBH with 5% lysed horse blood was used for testing S. pneumoniae and Haemophilus Test Medium was used for testing H. influenzae. Oxyrase® (Oxyrase Inc, Mansfield, Ohio) was used according to the manufacturer's instructions by adding 1 ml of Oxyrase® to 50 ml of media. Media age studies were performed by preparing MHB in multiple flasks, then storing the media under various conditions. MICs were usually performed in duplicate on each day of testing. Storage under anaerobic conditions was conducted in an anaerobic chamber (MACS MG 1000, Don Whitley Scientific LTD). The pH of the media was determined by pH meter (Corning 430). A comparison of the in vitro activity of tigecycline by agar and broth dilution methodolgies with and without Oxyrase® against clinical isolates is shown in Table 1.

[2] = system: Escherichia coli GC4559 parent GC4560; assay: Broth microdilution MIC; format: cell-based; conditions: E. coli GC4559; for In Vitro Activity of Tigecycline: Broth; for MIC: Escherichia coli, read-out: Minimal Inhibitory Concentration
Method: as §1, §2

[3] = system: Escherichia coli GC4560 IMP mutant; assay: Broth microdilution MIC; format: cell-based; conditions: E. coli GC4560 IMP mutant
Method: as §1, §2

[4] = system: S. pneumoniae GC1894 (Clinical); assay: Broth microdilution MIC; format: cell-based; conditions: Streptococcus pneumoniae, read-out: Minimal Inhibitory Concentration
Method: as §1, §2

[5] = system: Staphylococcus aureus GC1079 tet(K); assay: Broth microdilution MIC; format: cell-based
Method: as §1, §2

[6] = system: Enterococcus faecalis GC2267 tet(L) + (M) + (S); assay: Agar dilution in vitro activity; format: cell-based; conditions: E. faecalis GC2267 tet(L) + (M) + (S)
Method: as §2

[7] = system: Staphylococcus aureus GC1079 tet(K); assay: Agar dilution in vitro activity; format: cell-based; conditions: S. aureus GC1079 tet(K)
Method: as §2

[8] = system: clinical isolates and strains expressing various tetracycline resistance determinants; assay: Broth microdilution MIC, panel of clinical isolates and tetracycline-resistant strains taken together; format: cell-based; conditions: Table 5 panel
Method: as §2, with “1. […]” for “1.”

[9] = Table 8, E. faecalis ATCC 29212, Mueller Hinton Broth + Oxyrase, n = 240
[10] = Table 8, E. faecalis ATCC 29212, Mueller Hinton Broth, n = 320
[11] = Table 9, E. faecalis ATCC 29212, Mueller Hinton Broth + Oxyrase, n = 31
[12] = Table 9, E. faecalis ATCC 29212, Mueller Hinton Broth, n = 96
[13] = 336 h, Aged Media (two weeks at RT)

## CN(C)c1cc(NC(=O)CNC(C)(C)C)c(O)c2c1C[C@H]1C[C@H]3[C@H](N(C)C)C(O)=C(C(N)=O)C(=O)[C@@]3(O)C(O)=C1C2=O [Tigecycline, tigecycline]
[1]; ATCC29212, read-out: Minimal Inhibitory Concentration, E. faecalis ATCC 29212, Mueller Hinton Broth II (Fresh)
  MIC: 0.06 to 0.12 µg/mL (≈ 0.102 to 0.205 µM)
[1]; ATCC29212, read-out: Minimal Inhibitory Concentration, E. faecalis ATCC 29212, No Oxyrase
  MIC: 0.25 µg/mL (≈ 0.427 µM)
[1]; ATCC29212, read-out: Minimal Inhibitory Concentration, E. faecalis ATCC29212, media Aged Anaerobic, N = 4
  MIC: 0.03 µg/mL (≈ 0.0512 µM)
[1]; [9]
  Number of Occurrences of MIC 0.03 ug/ml: 5
  Number of Occurrences of MIC 0.06 ug/ml: 203
  Number of Occurrences of MIC 0.12 ug/ml: 28
  Number of Occurrences of MIC 0.25 ug/ml: 2
  Number of Occurrences of MIC 0.5 ug/ml: 1
  Number of Occurrences of MIC 1 ug/ml: 1
[1]; [10]
  Number of Occurrences of MIC 0.06 ug/ml: 1
  Number of Occurrences of MIC 0.12 ug/ml: 96
  Number of Occurrences of MIC 0.25 ug/ml: 140
  Number of Occurrences of MIC 0.5 ug/ml: 16
  Number of Occurrences of MIC 1 ug/ml: 64
  Number of Occurrences of MIC 2 ug/ml: 3
[1]; [11]
  Number of Occurrences of MIC 0.03 ug/ml: 6
  Number of Occurrences of MIC 0.06 ug/ml: 14
  Number of Occurrences of MIC 0.12 ug/ml: 11
[1]; [12]
  Number of Occurrences of MIC 0.12 ug/ml: 25
  Number of Occurrences of MIC 0.25 ug/ml: 52
  Number of Occurrences of MIC 0.5 ug/ml: 19
[2]; Oxyrase (2%)
  In Vitro Activity of Tigecycline: 0.12
[2]; no Oxyrase
  In Vitro Activity of Tigecycline: 0.50
[2]; [13]
  MIC: 0.12 µg/mL (≈ 0.205 µM)
[2]; Fresh Media
  MIC: 0.06 µg/mL (≈ 0.102 µM)
[3]; Oxyrase (2%)
  In Vitro Activity of Tigecycline: 0.03
[3]; no Oxyrase
  In Vitro Activity of Tigecycline: 0.25
[4]; [13]
  MIC: 0.03 µg/mL (≈ 0.0512 µM)
[4]; Fresh Media
  MIC: < 0.008 µg/mL
[5]; Broth, no Oxyrase, S. aureus GC1079 tet(K)
  In Vitro Activity of Tigecycline: 0.50
[5]; Staphylococcus aureus, read-out: Minimal Inhibitory Concentration
  MIC: 0.25 µg/mL (≈ 0.427 µM)
[6]; Oxyrase (10%)
  In Vitro Activity of Tigecycline: 0.12
[6]; no Oxyrase
  In Vitro Activity of Tigecycline: 0.25
[7]; Oxyrase (10%)
  In Vitro Activity of Tigecycline: 0.25
[7]; no Oxyrase
  In Vitro Activity of Tigecycline: 0.5
[8]
  MICs in fresh media lower than in aged media: 1 to 3 dilutions
